Where two headings read alike, the source gives them in different places.
Experiments:
[1] = Blood pressure of human subjects; conditions: Subject #2, ATENOLOL 25 mg/day alone
Experimental: The approximate daily dosage of each of the components of the herb-containing composition was as follows: B. monnieri extract (200 mg), Milk Thistle extract 70-80% (300 mg), Ashwagandha powder (200 mg), Turmeric extract (95%) (100 mg), Gotu kola powder (200 mg), Aloe vera powder (200 mg), Green tea (98% Polyphenols 45% EGCG) (100 mg), and Ginko biloba leaf extract (200 mg).
The approximate daily dosage of each of the components of the herb-containing composition was as follows: B. monnieri extract (134 mg), Milk Thistle extract 70-80% (200 mg), Ashwagandha powder (134 mg), Turmeric extract (95%) (67 mg), Gotu kola powder (134 mg), Aloe vera powder (134 mg), Green tea (98% Polyphenols, 45% EGCG) (67 mg), and Ginko biloba leaf extract (134 mg).

HO-1 [2] = test: Protandim®-induced HO-1 protein in presence of signaling pathway inhibitors, SK-N-MC cells; format: cell-based, human; conditions: for decrease of Protandim®-mediated increase in HO-1 expression in presence of inhibitor: 20 μM SB203580 or 1 μM rottlerin 30 min
Experimental: To identify the signaling pathway(s) involved in HO-1 promoter induction by Protandim®, different pharmacological inhibitors that specifically block each of the following pathways were used: 5-(2-benzothiazolyl)-3-ethyl-2-[2-(methylphenylamino) ethenyl]-1-phenyl-1H-benzimidazolium iodide (Akt inhibitor IV) for Akt, LY294002 for PI3-kinase, SP600125 for JNK, U0126 for MEK/ERK, SB203580 for p38MAPK, and rottlerin for PKCδ. SK-N-MC cells were preincubated in the presence of 250 nM Akt inhibitor IV, 30 μM LY294002, 1 μM rottlerin, 10 μM U0126, 20 μM SB203580, or 20 μM SP600125 for 30 min followed by exposure to 20 μg/ml Protandim® for 24 h. Cell lysates were electrophoresed and immunoblotted for HO-1. The blots were then reprobed with the antibody for β-actin. […] The intensities of the bands were quantified by densitometry using Fluor-S MultiImager and Quantity One software from Bio-Rad. HO-1 levels were corrected for β-actin expression.

HO-1 promoter [3] = test: HO-1 promoter luciferase reporter assay in MIN6 cells; format: cell-based, mouse; conditions: concentration present in the maximum dose of Protandim® (40 μg/ml)
Experimental: (§1) The induction of HO-1 by Protandim® was tested by transient transfection of its promoter linked to the luciferase reporter gene in MIN6 cells, a mouse insulinoma cell line, and in SK-N-MC cells, a human neuroblastoma cell line, as reported in Velmurugan, K. et al., “Synergistic induction of heme oxygenase-1 by the components of the antioxidant supplement Protandim,” Free Radical Biology & Medicine, 46: 430-440 (2009), the entire disclosure of which is incorporated herein by reference.
(§2) The alcohol extract of Protandim® was prepared by shaking 675 mg of Protandim with 16.875 ml of 95% ethanol overnight at 4° C. and centrifuging at 5000 rpm (4° C.) for 5 min, and the extract (40 mg/ml) was stored at −80° C. For studies on synergy, the individual components present in 675 mg of Protandim® were extracted in the same volume of alcohol by a similar procedure. Parallel preparations of Protandim® extracts were also prepared with one of the components omitted. […] Controls were treated with the same volume of alcohol used in the treated groups. […]
(§3) After freezing and thawing, the lysates were centrifuged (10,600 g; 20 min) to collect the supernatant. Firefly luciferase and Renilla luciferase activities from transfected cells were measured using the Dual-Glo Luciferase Assay System (Promega). […]

HO-1 promoter [4] = test: HO-1 promoter luciferase reporter assay in SK-N-MC cells; format: cell-based, human; conditions: concentration present in the maximum dose of Protandim® (20 μg/ml)
Experimental: as §1, §2, §3

HO-1 [5] = test: HO-1 protein by Western blot in MIN6 cells; format: cell-based, mouse; conditions: ethanolic extracts at maximum doses of Table 10 (Protandim® 40 μg/ml)
Text: (§4) After treatment with Protandim® extracts, MIN6 and SK-N-MC cells were washed with ice-cold PBS. Cells were lysed with mammalian protein extraction reagent (Pierce, Rockford, Ill., USA) containing phosphatase inhibitors and protease inhibitor cocktail. […] Diluted samples containing equal amounts of protein were mixed with 2× Laemmli sample buffer and subjected to electrophoresis on 12% SDS-polyacrylamide gels. After transfer to polyvinylidene difluoride membranes, the membranes were blocked with TBST [20 mM Tris-HCl (pH 7.9), 8.5% NaCl, and 0.1% Tween 20] containing 5% nonfat dry milk at room temperature for 1 h and exposed to primary antibodies (1:1000) in TBST containing 5.0% BSA at 4° C. overnight. After being washed in blocking solution, the membranes were exposed to secondary antibodies conjugated to alkaline phosphatase and developed with CDP-Star reagent (New England Biolabs, Beverly, Mass., USA). The intensity of the protein bands was visualized using Fluor-S Multi-Imager and Quantity One software from Bio-Rad. […]
(§5) Cell lysates were processed for Western blot analysis of HO-1, and the blots reprobed for β-actin. The intensities of bands were quantitated by scanning in a MultiImager using Quantity One software (Bio-Rad), and HO-1 expression was corrected for β-actin levels.

HO-1 [6] = test: HO-1 protein by Western blot in SK-N-MC cells; format: cell-based, human; conditions: ethanolic extracts at maximum doses of Table 10 (Protandim® 20 μg/ml)
Text: as §4, §5

[7] = pH of 1.0; cited from earlier work
Nrf2 = test: AREc32 bioassay for Nrf2 activation
Text: The assay for Nrf2 activation is based on the AREc32 cell line, developed by Dr. C. R. Wolf and colleagues of the University of Dundee, Scotland, as described in Wang, X. J. et al., “Generation of a stable antioxidant response element-driven reporter gene cell line and its use to show redoxdependent activation of Nrf2 by cancer chemotherapeutic agents,” Cancer Res. 66, 10983-10994 (2006); Hybertson, B. M. et al., “Oxidative stress in health and disease: the therapeutic potential of Nrf2 activation,” Molecular Aspects of Medicine, 32: 234-246 (2011), the entire disclosure of each of which is incorporated herein by reference. The AREc32 cell line is a stable transfectant derived from the MCF7 human breast cancer cell line. It contains a promoter with eight copies of the rat glutathione-S-transferase-A2 Antioxidant Response Element (ARE) and the SV40 promoter sequence upstream of a firefly luciferase reporter gene.
Briefly, AREc32 cells were grown in Opti-MEM (GIBCO, Carlsbad, Calif.) supplemented with 4% fetal bovine serum (FBS, GIBCO) and 1% Antibiotic-Antimycotic (GIBCO) at 37° C. and in a 10% CO 2-supplemented air atmosphere. The cells were seeded at 1% to 5% of confluent cell density in T75 tissue culture flasks and cultivated until they approached confluence. The medium was aspirated off and the adherent cells trypsinized with 1 ml of 1× Trypsin-EDTA solution (GIBCO) for 10 min. Ten milliliters of medium was added to the flask and the cells transferred to a 50 ml centrifuge tube and centrifuged at 1000 rpm for 5 min at room temperature. Cells were washed once with 10 ml of medium, then resuspended in 10 ml of medium. Cells were counted using a hemocytometer and diluted to a concentration of 50,000 cells/ml. Four hundred microliters of this cell suspension was seeded into each well of a 24-well plate (i.e. 20,000 cells/well). Seeded plates were then returned to the incubator for 24 h.
After 18-24 h the cells were reattached and growing, and ready for treatment with samples with putative Nrf2 activating activity. […] Vehicles used were aqueous or organic solvents such as ethanol or DMSO, and appropriate vehicle controls were included. The cells were then returned to the incubator for 18 h. All operations up to this point must be conducted under sterile conditions.
After 24 h the cells were checked under the microscope for any abnormalities or detachment. The medium was aspirated and the cells were washed with phosphate buffered saline, pH 7.4 (100 μl/well). Following aspiration of the wash solution, the cells were lysed by application of 0.1 M potassium phosphate buffer, pH 7.8, containing 1% Triton X-100, 2 mM dithiothreitol, 2 mM EDTA, 10% glycerol and 3.5 mM sodium pyrophosphate (100 μl/well). The plate was incubated at 4° C. for 20 min. Lysate (20 μl from each well in a new 12×75 mm glass test tube) was assayed for luciferase activity using a Monolight 3010 autoinject luminometer (Analytical Luminescence Laboratory, Ann Arbor, Mich.), automatically injecting 50 of Luciferase Assay Buffer after background measurement. Luciferase Assay Buffer was prepared by mixing 9 ml of Solution A (15 mM Tricine, pH 7.8, containing 1.5 mM ATP, 7.5 mM MgSO 4, and 5 mM dithiothreitol) with 1 ml of Solution B 10 mM D-luciferin). After a 4 delay following injection, luminescence was measured for 10 s. Relative Light Units (RLU) were recorded for the contents of each well. Fold Induction (FI) of luciferase activity was calculated by dividing the RLU obtained for the test well by the average RLU obtained for control wells (which received no putative Nrf2 activator). Each assay or control was performed in duplicate. Parameters noted were the concentration of test substance providing maximal fold induction of luciferase (Cmax), and the maximal fold induction observed (FImax).
The AREc32 cells were prepared as in Example 7. After 18-24 h the cells were reattached and growing, and ready for treatment with samples with putative Nrf2 activating activity. […]

[8] = SK-N-MC, 250 nM Akt inhibitor IV, 30 μM LY294002, 10 μM U0126, 20 μM SP600125, 30 min, then 20 μg/ml Protandim® 24 h
[9] = SK-N-MC, then 20 μg/ml Protandim® 24 h
[10] = AREc32 cells, biphasic induction

Q: With `CC(C)NCC(O)COc1ccc(CC(N)=O)cc1` (stereo not shown) [ATENOLOL] as the compound, how does the lowest diastolic measurement [1] read?
A: The lowest diastolic measurement was 91.

Q: With `CC[n+]1c(/C=C/N(C)c2ccccc2)n(-c2ccccc2)c2ccc(-c3nc4ccccc4s3)cc21` [Akt inhibitor IV, 5-(2-benzothiazolyl)-3-ethyl-2-[2-(methylphenylamino)ethenyl]-1-phenyl-1H-benzimidazolium iodide] as the compound, how does the “effect of inhibitor on Protandim®-induced increase in HO-1 protein levels” value (HO-1 [2]; [8]) read?
A: The value was “significant (p<0.001) decrease”.

Q: For `COc1cc(/C=C/C(=O)CC(=O)/C=C/c2ccc(O)c(OC)c2)ccc1O` [Curcumin], which “HO-1 promoter induction by individual ingredient” value (HO-1 promoter [3]) is on record?
A: The value was 36%.

Q: What about the “HO-1 promoter induction by individual ingredient” value (HO-1 promoter [4]) of the same compound?
A: Its value is 300%.

Q: And the “increase of HO-1 protein level” value (HO-1 [5])?
A: Its value is 6 fold.

Q: And the “increase of HO-1 protein level” value (HO-1 [6])?
A: Its value is 6 fold.

Q: With `N[C@@H](CCC(=O)N[C@@H](CS)C(=O)NCC(=O)O)C(=O)O` [GSH, L-γ-glutamyl-L-cysteinyl-glycine] as the compound, how does the “rate constant K2 against the hydroxyl radical” value [7] read?
A: The value was 8.8×10^9.

Q: For `CC(=O)N[C@@H](CS)C(=O)O` [NAC, N-Acetyl Cysteine], which rate constant K2 against the hydroxyl radical [7] is on record?
A: The rate constant K2 against the hydroxyl radical was 1.36e+10 M⁻¹ s⁻¹.

Q: With `C[S+]([O-])c1ccc(-c2nc(-c3ccncc3)c(-c3ccc(F)cc3)[nH]2)cc1` (stereo not shown) [SB203580] as the compound, how does the “decrease of Protandim®-mediated increase in HO-1 expression in presence of inhibitor” value (HO-1 [2]; [9]) read?
A: Its value is 50%.

Q: With `Oc1c2ccccc2c2c3c(cccc13)N=N2` [SP600125] as the compound, how does the “effect of inhibitor on Protandim®-induced increase in HO-1 protein levels” value (HO-1 [2]; [8]) read?
A: The value was “No significant effect”.

Q: With `N#CC(=C(/N)Sc1ccccc1N)/C(C#N)=C(\N)Sc1ccccc1N` [U0126] as the compound, how does the “effect of inhibitor on Protandim®-induced increase in HO-1 protein levels” value (HO-1 [2]) read?
A: Its value is “No significant effect”.

Q: What does the source list for `CC1=C(CO)C(=O)O[C@@H]([C@@H](C)[C@H]2CC[C@H]3[C@@H]4C[C@H]5O[C@]56[C@@H](O)C=CC(=O)[C@]6(C)[C@H]4CC[C@]23C)C1` [Withaferin A]?
A: concentration providing maximal fold induction of luciferase (Cmax) (Nrf2; AREc32 cells, 18 h): 2.1 µM; concentration providing maximal fold induction of luciferase (Cmax) (Nrf2; AREc32 cells, 18 h, ethanolic extract): 1.0 µg/mL

Q: Which “maximal fold induction observed (FImax)” value (Nrf2) does the source give for `COC(=O)[C@]12CCC(C)(C)C[C@H]1[C@H]1C(=O)C=C3[C@@]4(C)C=C(C#N)C(=O)C(C)(C)[C@@H]4CC[C@@]3(C)[C@]1(C)CC2` [bardoxolone methyl] here?
A: The value was 67 fold.

Q: And the “lower end of concentration range producing near maximal FI” value (Nrf2; [10])?
A: The value was “less than 40 nM”.

Q: And the upper end of concentration range producing near maximal FI (Nrf2; [10])?
A: Its upper end of concentration range producing near maximal FI is 0.4 µM.

Q: With `CC(=O)c1c(O)c(C)c(O)c(Cc2c(O)c3c(c(C(=O)/C=C/c4ccccc4)c2O)OC(C)(C)C=C3)c1O` [rottlerin] as the compound, how does the “decrease of Protandim®-mediated increase in HO-1 expression in presence of inhibitor” value (HO-1 [2]; [9]) read?
A: The value was 50%.

Q: Which “maximal fold induction observed (FImax)” value (Nrf2; human, 18 h) does the source give for `C[S+]([O-])CCCCN=C=S` (stereo not shown) [sulforaphane] here?
A: The value was 21 fold.

Q: Which “increase of luciferase activity” value (Nrf2; AREc32 cells, 50 μmol/L) does the source give for `CC(C)(C)c1cc(O)ccc1O` [tert-butyl-hydroquinone] here?
A: Its value is “up to 50 fold”.
